PubChem BioAssay AID2060495 (Molecular Pharmacology Branch, DTP, NCI, 2025)

Tested on: 521955-158-R2-J5-PDC complex spheroid viability
Assay: Anticancer human tumor 521955-158-R2-J5-PDC patient-derived pancreatic carcinoma cell line growth inhibition [GQUAD]
Settings: for IC50: curve of first compound; for viability, T/C: stronger effect = lower value
Method in brief: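 Tumor cells were grown as complex spheroids with HUVEC endothelial cells and mesenchymal stem cells as stroma. G-quadruplex stabilizers were combined with targeted agents over half-log dilutions from near the clinical Cmax, or from 10 microM.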

[1] = second compound 0.0316 µM, first compound 0.0316 µM
[2] = second compound 0.0316 µM, first compound 0.1 µM
[3] = second compound 0.0316 µM, first compound 0.316 µM
[4] = second compound 0.0316 µM, first compound 1 µM
[5] = second compound 0.0316 µM, first compound 3.16 µM
[6] = second compound 0.0316 µM, first compound 10 µM
[7] = second compound 0.1 µM, first compound 0.0316 µM
[8] = second compound 0.1 µM, first compound 0.1 µM
[9] = second compound 0.1 µM, first compound 0.316 µM
[10] = second compound 0.1 µM, first compound 1 µM
[11] = second compound 0.1 µM, first compound 3.16 µM
[12] = second compound 0.1 µM, first compound 10 µM
[13] = second compound 0.316 µM, first compound 0.0316 µM
[14] = second compound 0.316 µM, first compound 0.1 µM
[15] = second compound 0.316 µM, first compound 0.316 µM
[16] = second compound 0.316 µM, first compound 1 µM
[17] = second compound 0.316 µM, first compound 3.16 µM
[18] = second compound 0.316 µM, first compound 10 µM
[19] = second compound 1 µM, first compound 0.0316 µM
[20] = second compound 1 µM, first compound 0.1 µM
[21] = second compound 1 µM, first compound 0.316 µM
[22] = second compound 1 µM, first compound 1 µM
[23] = second compound 1 µM, first compound 3.16 µM
[24] = second compound 1 µM, first compound 10 µM
[25] = second compound 3.16 µM, first compound 0.0316 µM
[26] = second compound 3.16 µM, first compound 0.1 µM
[27] = second compound 3.16 µM, first compound 0.316 µM
[28] = second compound 3.16 µM, first compound 1 µM
[29] = second compound 3.16 µM, first compound 3.16 µM
[30] = second compound 3.16 µM, first compound 10 µM
[31] = second compound 10 µM, first compound 0.0316 µM
[32] = second compound 10 µM, first compound 0.1 µM
[33] = second compound 10 µM, first compound 0.316 µM
[34] = second compound 10 µM, first compound 1 µM
[35] = second compound 10 µM, first compound 3.16 µM
[36] = second compound 10 µM, first compound 10 µM
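Also: spheroids exposed to agents for one week before reading.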
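For viability, T/C in this document: 100% = DMSO vehicle control viability.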

CC(=O)O[C@H]1C(=O)[C@@]2(C)[C@H]([C@H](OC(=O)c3ccccc3)[C@]3(O)C[C@H](OC(=O)[C@H](O)[C@@H](NC(=O)c4ccccc4)c4ccccc4)C(C)=C1C3(C)C)[C@]1(OC(C)=O)CO[C@@H]1C[C@@H]2O + Cc1[nH]c2ccc(F)cc2c1-c1nc2c3cccnc3c3ncccc3c2[nH]1
IC50 (second compound 0.0316 µM): < 31.6 nM
IC50 (second compound 0.1 µM): < 31.6 nM
IC50 (second compound 0.316 µM): < 31.6 nM
IC50 (second compound 1 µM): < 31.6 nM
IC50 (second compound 3.16 µM): < 31.6 nM
IC50 (second compound 10 µM): < 31.6 nM
viability, T/C [1]: 46.1%
viability, T/C [2]: 34.1%
viability, T/C [3]: 31%
viability, T/C [4]: 30.8%
viability, T/C [5]: 30.8%
viability, T/C [6]: 25.6%
viability, T/C [7]: 49%
viability, T/C [8]: 43.9%
viability, T/C [9]: 39%
viability, T/C [10]: 31.2%
viability, T/C [11]: 35.7%
viability, T/C [12]: 29.9%
viability, T/C [13]: 47.6%
viability, T/C [14]: 37.5%
viability, T/C [15]: 31.4%
viability, T/C [16]: 27.5%
viability, T/C [17]: 32.1%
viability, T/C [18]: 24.2%
viability, T/C [19]: 43.6%
viability, T/C [20]: 41.5%
viability, T/C [21]: 43.4%
viability, T/C [22]: 31.5%
viability, T/C [23]: 19.8%
viability, T/C [24]: 33.5%
viability, T/C [25]: 38.7%
viability, T/C [26]: 36.7%
viability, T/C [27]: 30.6%
viability, T/C [28]: 32.5%
viability, T/C [29]: 34.9%
viability, T/C [30]: 30.2%
viability, T/C [31]: 41.3%
viability, T/C [32]: 41.9%
viability, T/C [33]: 32.8%
viability, T/C [34]: 40.2%
viability, T/C [35]: 37.7%
viability, T/C [36]: 39%

CC[C@@]1(O)C(=O)OCc2c1cc1n(c2=O)Cc2cc3c(CN(C)C)c(O)ccc3nc2-1 + Cc1[nH]c2ccc(F)cc2c1-c1nc2c3cccnc3c3ncccc3c2[nH]1
IC50 (second compound 0.0316 µM): 54.2 nM
IC50 (second compound 0.1 µM): 65.6 nM
IC50 (second compound 0.316 µM): 66.3 nM
IC50 (second compound 1 µM): 67.2 nM
IC50 (second compound 3.16 µM): 61 nM
IC50 (second compound 10 µM): 69.3 nM
viability, T/C (second compound 0.0316 µM, first compound 0.000999 µM): 108%
viability, T/C (second compound 0.0316 µM, first compound 0.00316 µM): 96.6%
viability, T/C (second compound 0.0316 µM, first compound 0.00999 µM): 123%
viability, T/C [1]: 69.8%
viability, T/C (second compound 0.0316 µM, first compound 0.0999 µM): 29%
viability, T/C [3]: 9.65%
viability, T/C (second compound 0.1 µM, first compound 0.000999 µM): 90.7%
viability, T/C (second compound 0.1 µM, first compound 0.00316 µM): 115%
viability, T/C (second compound 0.1 µM, first compound 0.00999 µM): 100%
viability, T/C [7]: 91.8%
viability, T/C (second compound 0.1 µM, first compound 0.0999 µM): 26%
viability, T/C [9]: 10.2%
viability, T/C (second compound 0.316 µM, first compound 0.000999 µM): 104%
viability, T/C (second compound 0.316 µM, first compound 0.00316 µM): 120%
viability, T/C (second compound 0.316 µM, first compound 0.00999 µM): 109%
viability, T/C [13]: 84.7%
viability, T/C (second compound 0.316 µM, first compound 0.0999 µM): 30.9%
viability, T/C [15]: 9.94%
viability, T/C (second compound 1 µM, first compound 0.000999 µM): 115%
viability, T/C (second compound 1 µM, first compound 0.00316 µM): 97%
viability, T/C (second compound 1 µM, first compound 0.00999 µM): 115%
viability, T/C [19]: 95.3%
viability, T/C (second compound 1 µM, first compound 0.0999 µM): 26.1%
viability, T/C [21]: 9.43%
viability, T/C (second compound 3.16 µM, first compound 0.000999 µM): 115%
viability, T/C (second compound 3.16 µM, first compound 0.00316 µM): 108%
viability, T/C (second compound 3.16 µM, first compound 0.00999 µM): 103%
viability, T/C [25]: 70.8%
viability, T/C (second compound 3.16 µM, first compound 0.0999 µM): 34.1%
viability, T/C [27]: 10.8%
viability, T/C (second compound 10 µM, first compound 0.000999 µM): 91.8%
viability, T/C (second compound 10 µM, first compound 0.00316 µM): 98%
viability, T/C (second compound 10 µM, first compound 0.00999 µM): 97.9%
viability, T/C [31]: 84.7%
viability, T/C (second compound 10 µM, first compound 0.0999 µM): 33.8%
viability, T/C [33]: 15.6%

COc1cc(C2c3cc4c(cc3C(OC3OC5COC(C)OC5C(O)C3O)C3COC(=O)C23)OCO4)cc(OC)c1O (stereo unspecified) + Cc1[nH]c2ccc(F)cc2c1-c1nc2c3cccnc3c3ncccc3c2[nH]1
IC50 (second compound 0.0316 µM): 645 nM
IC50 (second compound 0.1 µM): 576 nM
IC50 (second compound 0.316 µM): 661 nM
IC50 (second compound 1 µM): 628 nM
IC50 (second compound 3.16 µM): 653 nM
IC50 (second compound 10 µM): 556 nM
viability, T/C [1]: 99.5%
viability, T/C [2]: 72.6%
viability, T/C [3]: 73%
viability, T/C [4]: 41%
viability, T/C [5]: 14%
viability, T/C [6]: 9.66%
viability, T/C [7]: 81%
viability, T/C [8]: 102%
viability, T/C [9]: 70.6%
viability, T/C [10]: 29.8%
viability, T/C [11]: 15.1%
viability, T/C [12]: 10.7%
viability, T/C [13]: 104%
viability, T/C [14]: 94.9%
viability, T/C [15]: 76.3%
viability, T/C [16]: 34%
viability, T/C [17]: 18.7%
viability, T/C [18]: 7.53%
viability, T/C [19]: 84.2%
viability, T/C [20]: 114%
viability, T/C [21]: 82.2%
viability, T/C [22]: 27.6%
viability, T/C [23]: 15.4%
viability, T/C [24]: 9.36%
viability, T/C [25]: 74.8%
viability, T/C [26]: 100%
viability, T/C [27]: 73.1%
viability, T/C [28]: 35.6%
viability, T/C [29]: 14.7%
viability, T/C [30]: 11.6%
viability, T/C [31]: 96.3%
viability, T/C [32]: 94%
viability, T/C [33]: 66.8%
viability, T/C [34]: 31.9%
viability, T/C [35]: 17.1%
viability, T/C [36]: 12.4%
